Several values for one entry are separate records, joined by “and”; a condition that tells them apart may be missing. Identical values can stand only once. Like-named read-outs stand apart in the source and are kept apart here. One block for each compound: values may come before it.
Columns and labels:
CDK2/Cyclin A complex = CDK2/Cyclin A complex (Homo sapiens, UniProt P24941); assay: CDK2/Cyclin A assay; assay type: biochemical; conditions: for CDK2 % inhibition @ 10: at 10 (head μM)
Outline: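 Radiometric assay: 150 nM CDK2/cyclin A (insect-cell CDK2, truncated cyclin A) phosphorylates His-tagged Rb fragment (residues 386-928) with 25 μM ATP plus [32P]ATP, pH 7.4 HEPES, 2% DMSO, 30 °C for 20 min. Filter-captured product counted by phosphorimager; apparent Ki from competitive or tight-binding inhibition fits.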

CDK4/Cyclin D3 complex = biological target: T1, CDK4/Cyclin D3 complex (Homo sapiens, UniProt P11802); assay: CDK4/Cyclin D assay; assay type: biochemical; conditions: for CDK4 % inhibition @ 10: at 10 (head μM)
T1 construct: made in house; host or cells: insect cells co-infected with baculovirus vectors
T1 sequence (P11802 whole entry): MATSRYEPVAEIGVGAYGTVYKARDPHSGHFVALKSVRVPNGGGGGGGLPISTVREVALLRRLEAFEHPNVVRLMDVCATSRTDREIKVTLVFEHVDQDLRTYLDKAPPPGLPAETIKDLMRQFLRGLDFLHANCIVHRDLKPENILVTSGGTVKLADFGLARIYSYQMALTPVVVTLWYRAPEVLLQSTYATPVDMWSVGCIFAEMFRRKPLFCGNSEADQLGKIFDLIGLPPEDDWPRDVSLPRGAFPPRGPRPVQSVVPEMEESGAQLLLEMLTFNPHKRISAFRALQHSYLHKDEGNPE
T1 sequence (P30281 whole entry partner): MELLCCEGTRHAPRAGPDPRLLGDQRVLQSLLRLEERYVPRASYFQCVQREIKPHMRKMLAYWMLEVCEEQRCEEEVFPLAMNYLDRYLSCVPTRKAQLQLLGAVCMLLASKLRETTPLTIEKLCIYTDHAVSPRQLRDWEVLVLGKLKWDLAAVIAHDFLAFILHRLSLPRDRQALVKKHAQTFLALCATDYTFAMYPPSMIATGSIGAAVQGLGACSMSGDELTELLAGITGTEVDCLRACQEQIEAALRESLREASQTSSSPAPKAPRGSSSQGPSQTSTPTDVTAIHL
Outline: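 Insect-cell-expressed CDK4/cyclin D3 (50 nM) phosphorylating His-tagged Rb fragment (residues 386-928) with 25 μM [^32P]ATP in HEPES pH 7.4, MgCl2, 2% DMSO; 20 min at 30 °C, EDTA stop. Filter-captured 32P by phosphorimager; apparent Ki from competitive or tight-binding inhibition fits.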

[1] = biological target: T2, phosphorylated VEGF-R2Δ50 (Homo sapiens, UniProt P35968, DEL940-989/E990V); assay: VEGF-R2 ELISA assay; assay type: biochemical; conditions: * determined with ELISA assay, read-out: FLVK-P Ki
T2 construct: VEGF-R2Δ50 contains residues 806-939 and 990-1171; made in house; host or cells: baculovirus/insect cells
T2 sequence (P35968 with tags, fused parts or gaps DEL940-989/E990V limits assumed): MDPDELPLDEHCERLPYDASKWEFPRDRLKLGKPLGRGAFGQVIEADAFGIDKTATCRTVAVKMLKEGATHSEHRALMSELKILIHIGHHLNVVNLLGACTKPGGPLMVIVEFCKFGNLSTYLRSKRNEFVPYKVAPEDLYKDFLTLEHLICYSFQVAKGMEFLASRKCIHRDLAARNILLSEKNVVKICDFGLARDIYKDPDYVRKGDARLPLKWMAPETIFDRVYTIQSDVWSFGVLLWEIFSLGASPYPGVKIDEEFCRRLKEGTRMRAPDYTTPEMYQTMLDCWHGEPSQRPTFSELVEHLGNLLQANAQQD
Text: VEGF-R2 Construct for Assay: This construct determines the ability of a test compound to inhibit tyrosine kinase activity. A construct (VEGF-R2Δ50) of the cytosolic domain of human vascular endothelial growth factor receptor 2 (VEGF-R2) lacking the 50 central residues of the 68 residues of the kinase insert domain was expressed in a baculovirus/insect cell system. Of the 1356 residues of full-length VEGF-R2, VEGF-R2Δ50 contains residues 806-939 and 990-1171, and also one point mutation (E990V) within the kinase insert domain relative to wild-type VEGF-R2. Autophosphorylation of the purified construct was performed by incubation of the enzyme at a concentration of 4 μM in the presence of 3 mM ATP and 40 mM MgCl2 in 100 mM Hepes, pH 7.5, containing 5% glycerol and 5 mM DTT, at 4° C. for 2 h. […] See Parast et al., Biochemistry, 37, 16788-16801 (1998).
Formation of phosphogastrin was monitored using biotinylated gastrin peptide (1-17) as substrate. Biotinylated phosphogastrin was immobilized using streptavidin coated 96-well microtiter plates followed by detection using anti-phosphotyrosine-antibody conjugated to horseradish peroxidase. The activity of horseradish peroxidase was monitored using 2,2′-azino-di-[3-ethylbenzathiazoline sulfonate(6)]diammonium salt (ABTS). Typical assay solutions contained: 2 μM biotinylated gastrin peptide; 5 mM DTT; 20 μM ATP; 26 mM MgCl2; and 2 mM MnCl2 in 200 mM Hepes, pH 7.5. The assay was initiated with 0.8 nM of phosphorylated VEGF-R2Δ50. Horseradish peroxidase activity was assayed using ABTS, 10 mM. The horseradish peroxidase reaction was quenched by addition of acid (H2SO4), followed by absorbance reading at 405 nm. Ki values were determined by measuring enzyme activity in the presence of varying concentrations of test compounds. The data were analyzed using Enzyme Kinetic and Kaleidagraph software.

CHK1 = biological target: T3, CHK1 (Homo sapiens, UniProt O14757); assay: CHK1 high-throughput screening; assay type: biochemical; conditions: for inhibition at 20 µM: read-out: % inhibition @ 20 μM, Table 4, repeated entries per example; for % inhibition @ 20 μM: Table 4, repeated entries per example
T3 sequence (O14757 1-476): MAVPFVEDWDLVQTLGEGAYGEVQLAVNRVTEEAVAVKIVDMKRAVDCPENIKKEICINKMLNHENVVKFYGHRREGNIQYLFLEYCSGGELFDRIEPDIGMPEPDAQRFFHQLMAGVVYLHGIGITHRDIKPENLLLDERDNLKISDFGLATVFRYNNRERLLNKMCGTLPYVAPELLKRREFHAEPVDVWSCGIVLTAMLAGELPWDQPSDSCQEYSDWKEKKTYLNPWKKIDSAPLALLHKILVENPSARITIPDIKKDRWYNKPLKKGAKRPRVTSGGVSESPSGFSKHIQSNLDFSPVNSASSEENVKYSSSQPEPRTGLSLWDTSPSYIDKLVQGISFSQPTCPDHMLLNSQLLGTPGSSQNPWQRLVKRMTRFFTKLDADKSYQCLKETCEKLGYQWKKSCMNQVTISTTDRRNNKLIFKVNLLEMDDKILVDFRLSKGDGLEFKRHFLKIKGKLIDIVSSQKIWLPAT

[2] = biological target: T4, phosphorylated VEGF-R2Δ50 (FLVK-P) (Homo sapiens, UniProt P35968, DEL940-989/E990V); assay: VEGF-R2 coupled spectrophotometric (FLVK-P) assay; assay type: biochemical; conditions: spectrophotometric assay
T4 construct: VEGF-R2Δ50 contains residues 806-939 and 990-1171; made in house; host or cells: baculovirus/insect cells
T4 sequence (P35968 with tags, fused parts or gaps DEL940-989/E990V limits assumed): as the sequence (P35968 with tags, fused parts or gaps DEL940-989/E990V limits assumed) above
Outline: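 Baculovirus-expressed human VEGF-R2Δ50 (residues 806-939/990-1171, E990V) was autophosphorylated with 3 mM ATP, 40 mM MgCl2 for 2 h at 4° C. ADP formation was coupled via PK/LDH to NADH oxidation, read at 340 nm, with 5.1 mM poly(E4Y1), 1 mM ATP, 25 mM MgCl2, Hepes pH 7.5. Ki came from activity across compound concentrations.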

[3] = biological target: T5, unphosphorylated VEGF-R2Δ50 (FLVK) (Homo sapiens, UniProt P35968, DEL940-989/E990V); assay: VEGF-R2 coupled spectrophotometric assay, unphosphorylated enzyme (FLVK); assay type: biochemical; conditions: Table 1
T5 construct: VEGF-R2Δ50 contains residues 806-939 and 990-1171; made in house; host or cells: baculovirus/insect cells
T5 sequence (P35968 with tags, fused parts or gaps DEL940-989/E990V limits assumed): as the sequence (P35968 with tags, fused parts or gaps DEL940-989/E990V limits assumed) above
Outline: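 Unphosphorylated VEGF-R2Δ50 (5 to 40 nM) with 20 mM poly(E4Y1), 3 mM ATP, 60 mM MgCl2, 2 mM MnCl2 in 200 mM Hepes pH 7.5. ADP production coupled via PK/LDH to NADH oxidation, read at 340 nm. Ki from activity at varying compound concentrations.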

FGF-R1 = biological target: T6, FGF-R1 (Homo sapiens, UniProt P11362, C488A/C584S/L457V); assay: FGF-R spectrophotometric assay; assay type: biochemical; conditions: Table 2
T6 construct: starting from the endogenous methionine residue 456 to glutamate 766; made in house; host or cells: baculovirus vector expression system
T6 sequence (P11362 456-766 L457V/C488A/C584S): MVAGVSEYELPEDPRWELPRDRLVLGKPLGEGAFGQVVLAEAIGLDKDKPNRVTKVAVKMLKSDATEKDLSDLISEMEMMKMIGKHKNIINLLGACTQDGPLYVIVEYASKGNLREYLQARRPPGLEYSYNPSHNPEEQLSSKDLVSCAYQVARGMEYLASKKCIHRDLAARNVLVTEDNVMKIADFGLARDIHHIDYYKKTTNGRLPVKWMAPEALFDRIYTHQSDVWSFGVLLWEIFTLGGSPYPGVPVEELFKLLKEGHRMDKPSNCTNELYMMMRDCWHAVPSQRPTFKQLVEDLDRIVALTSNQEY
Procedure: FGF-R1 Construct for Assay: The intracellular kinase domain of human FGF-R1 was expressed using the baculovirus vector expression system starting from the endogenous methionine residue 456 to glutamate 766, according to the residue numbering system of Mohammadi et al., Mol. Cell. Biol., 16, 977-989 (1996). In addition, the construct also has the following 3 amino acid substitutions: L457V, C488A, and C584S.
The spectrophotometric assay was carried out as described above for VEGF-R2, except for the following changes in concentration: FGF-R=50 nM, ATP=2 mM, and poly(E4Y1)=15 mM.

FL-CHK1 = biological target: T7, FL-CHK1 (Homo sapiens, UniProt O14757); assay: CHK1 assay; assay type: biochemical; conditions: Table 2; at 5 (head μM)
T7 construct: C-terminally His-tagged full-length human CHK1 (FL-CHK1); 6xHis (C); made in house; host or cells: baculovirus/insect cells
T7 sequence (O14757 1-476): T3 sequence (O14757 1-476)
Outline: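 Full-length human CHK1 with C-terminal 6×His tag, made in baculovirus/insect cells, 10 nM, phosphorylating 0.125 mM Syntide-2 with 0.15 mM ATP in 50 mM Tris pH 7.5, 25 mM MgCl2, 400 mM NaCl. PK/LDH-coupled NADH oxidation read at 340 nm. Ki from initial rates over varied compound concentrations.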

Ki (CDK2/Cyclin A complex; Table 2): 8210 nM
Ki (CDK4/Cyclin D3 complex; Table 2): 45000 nM
Ki ([1]; Table 2): 8800 nM
inhibition at 20 µM (CHK1): -7.2%
SMILES: Nc1nc(Nc2ccc(S(N)(=O)=O)cc2)sc1-c1nc(-c2cccc(C(=O)O)c2)cs1 [A(21), 3-[4′-Amino-2′-(4-sulfamoyl-phenylamino)-[2,5′]bithiazolyl-4-yl]-benzoic acid]

melting point: 205 to 210 °C (dec.)
Ki ([1]; Table 1): 300 nM
SMILES: COc1cc(Nc2nc(N)c(-c3nc(-c4cccc(N)c4)cs3)s2)cc(OC)c1OC [C(1)]

CDK2 % inhibition @ 10 (CDK2/Cyclin A complex; Table 2): 25% @
melting point: 208 to 212 °C
CDK4 % inhibition @ 10 (CDK4/Cyclin D3 complex; Table 2): 28% @
SMILES: Cc1c(F)cc(-c2csc(-c3sc(Nc4ccc(S(N)(=O)=O)cc4)nc3N)n2)cc1Cl [A(7), 4-[4′-Amino-4-(3-chloro-5-fluoro-4-methyl-phenyl)-[2,5′]bithiazolyl-2′-ylamino]-benzenesulfonamide]

CDK2 % inhibition @ 10 (CDK2/Cyclin A complex; Table 2): 36% @
melting point: 173 to 175 °C (dec.)
CDK4 % inhibition @ 10 (CDK4/Cyclin D3 complex; Table 2): 54% @
SMILES: Nc1nc(Nc2ccc(S(N)(=O)=O)cc2)sc1-c1nc(-c2ccc(Cl)cc2Cl)cs1 [A(6), 4-[4′-Amino-4-(2,4-dichloro-phenyl)-[2,5′]bithiazolyl-2′-ylamino]-benzenesulfonamide]

melting point: 233 to 235 °C (dec.)
Ki (CDK4/Cyclin D3 complex; Table 2): 4600 nM
Ki ([1]; Table 2): 1400 nM
% inhibition @ 20 μM (CHK1): 49.8%
inhibition at 20 µM (CHK1): 36.6%
SMILES: Nc1nc(Nc2ccc(S(N)(=O)=O)cc2)sc1-c1nc(-c2ccccc2)cs1 [A(1), 4-(4′-Amino-4-phenyl-[2,5′]bithiazolyl-2′-ylamino)-benzenesulfonamide]

CDK2 % inhibition @ 10 (CDK2/Cyclin A complex; Table 2): 57% @
melting point: 233 to 238 °C
CDK4 % inhibition @ 10 (CDK4/Cyclin D3 complex; Table 2): 42% @
SMILES: Nc1nc(Nc2ccc(S(N)(=O)=O)cc2)sc1-c1nc(-c2ccc(F)cc2F)cs1 [A(4), 4-[4′-Amino-4-(2,4-difluoro-phenyl)-[2,5′]bithiazolyl-2′-ylamino]-benzenesulfonamide]

Ki (CDK2/Cyclin A complex; Table 2): 520 nM
melting point: 138 to 140 °C (dec.)
% inhibition @ 20 μM (CHK1): 1.1% and 7.2% and 8.3%
SMILES: Nc1nc(Nc2ccc(S(N)(=O)=O)cc2)sc1-c1nc(/C=C/c2ccc(O)cc2)cs1 [A(64), 4-{4′-Amino-4-[2-(4-hydroxy-phenyl)-vinyl]-[2,5′]bithiazolyl-2′-ylamino}-benzenesulfonamide]

Ki (CDK2/Cyclin A complex; Table 2): 3100 nM
melting point: 145 to 148 °C (dec.)
Ki (CDK4/Cyclin D3 complex; Table 2): 7000 nM
Ki ([1]; Table 2): 1900 nM
SMILES: Cc1sc(-c2sc(Nc3ccc(S(N)(=O)=O)cc3)nc2N)nc1-c1ccc(F)cc1 [A(14), 4-[4′-Amino-4-(4-fluoro-phenyl)-5-methyl-[2,5′]bithiazolyl-2′-ylamino]-benzenesulfonamide]

CDK2 % inhibition @ 10 (CDK2/Cyclin A complex; Table 2): 27% @
melting point: 254 to 257 °C
CDK4 % inhibition @ 10 (CDK4/Cyclin D3 complex; Table 2): 30% @
SMILES: Nc1nc(Nc2ccc(S(N)(=O)=O)cc2)sc1-c1nc(-c2ccc(F)cc2)cs1 [A(5), 4-[4′-Amino-4-(4-fluoro-phenyl)-[2,5′]bithiazolyl-2′-ylamino]-benzenesulfonamide]

Ki ([2]; Table 1): 390 nM
melting point: 159 to 163 °C (dec.)
Ki [3]: 38 nM
SMILES: Nc1nc(N)c(-c2nc(-c3cccc(NC(=O)c4ccccc4)c3)cs2)s1 [E(2), N-[3-(2 ′,4′-Diamino-[2,5′]bithiazolyl-4-yl)-phenyl]benzamide]

Ki (CDK2/Cyclin A complex; Table 2): 2700 nM
melting point: 185 to 187 °C (dec.)
SMILES: Nc1nc(Nc2ccc(S(N)(=O)=O)cc2)sc1-c1nc(-c2cc(O)cc(OCc3ccccc3)c2)cs1 [A(61), 4-[4′-Amino-4-(3-benzyloxy-5-hydroxy-phenyl)-[2,5]bithiazolyl-2′-ylamino]-benzenesulfonamide]

Ki (CDK2/Cyclin A complex; Table 2): 2000 nM
melting point: 140 to 143 °C (dec.)
Ki (CDK4/Cyclin D3 complex; Table 2): 20000 nM
% inhibition @ 20 μM (CHK1): 3.8% and 5.4% and 9.8%
SMILES: Nc1nc(Nc2ccc(S(N)(=O)=O)cc2)sc1-c1nc(/C=C/c2ccccc2)cs1 [A(63), 4-(4′-Amino-4-styryl-[2,5′]bithiazolyl-2′-ylamino)-benzenesulfonamide]

Ki (CDK2/Cyclin A complex; Table 3): 100 nM
melting point: 195 to 198 °C
Ki (CDK4/Cyclin D3 complex; Table 3): 1100 nM
SMILES: CON(C)C(=O)c1csc(-c2sc(Nc3ccc(S(N)(=O)=O)cc3)nc2N)n1 [N(3), 4′-Amino-2′-(4-sulfamoyl-phenylamino)-[2,5′]bithiazolyl-4-carboxylic acid methoxy-methyl-amide]

Ki (FGF-R1): 22000 nM
Ki ([2]; Table 2): 100 nM
SMILES: COc1cc(Nc2nc(N)c(C3=NC(c4ccccc4)CO3)s2)cc(OC)c1OC (stereo not shown) [I(6), S-5-(4-Phenyl-4,5-dihydro-oxazol-2-yl)-N^2-(3,4,5-trimethoxyl-phenyl)-thiazole-2,4-diamine]

Ki ([2]; Table 2): 21 nM
melting point: 235 to 238 °C
CHK-1 % inhibition @ 5 (FL-CHK1): 54% @
inhibition at 20 µM (CHK1): 7.5%
SMILES: COc1cc(Nc2nc(N)c(-c3nc(-c4ccc(Cl)c(O)c4)cs3)s2)cc(OC)c1OC [A(22), 5-[4′-Amino-2′-(3,4,5-trimethoxy-phenylamino)-[2,5′]bithiazolyl-4-yl]-2-chloro-phenol]

Ki (CDK2/Cyclin A complex; Table 2): 3400 nM
CDK4 % inhibition @ 10 (CDK4/Cyclin D3 complex; Table 2): 64% @
Ki ([1]; Table 2): 5500 nM
inhibition at 20 µM (CHK1): 13.3%
SMILES: Cc1ccc(-c2csc(-c3sc(Nc4ccc(S(N)(=O)=O)cc4)nc3N)n2)cc1 [A(24), 4-(4′-Amino-4-p-tolyl-[2,5′]bithiazolyl-2′-ylamino)-benzenesulfonamide]

From patent US6620828B2, “Thiazole compounds and pharmaceutical compositions for inhibiting protein kinases and methods for their use” (Agouron Pharmaceuticals, Inc., priority 1999, dated 2003)
